# Test results: PubChem BioAssay (NCI)
#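 How tested: cells in 96-well plates exposed to compound for 48 hours at five concentrations. GI50 = concentration required for 50% inhibition of growth. TGI: total growth inhibition.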
# Experiments:
# Assay in all cases: NCI tumour cell line growth inhibition, 48 h
# [1] = tested on: CCRF-CEM leukemia
# [2] = tested on: U251 CNS
# [3] = tested on: NCI-H226 lung
# [4] = tested on: SNB-75 CNS
# [5] = tested on: MDA-MB-435
# [6] = tested on: UACC-62 melanoma
# [7] = tested on: SK-MEL-5 melanoma
# [8] = tested on: IGROV1 ovarian
# [9] = tested on: K-562 leukemia
# [10] = tested on: A549 NSCLC
Compound,GI50 [1],TGI [1],GI50 [2],TGI [2],GI50 [3],TGI [3],GI50 [4],TGI [4],GI50 [5],TGI [5],GI50 [6],TGI [6],GI50 [7],TGI [7],GI50 [8],TGI [8],GI50 [9],TGI [9],GI50 [10],TGI [10]
CCCc1cc(=O)n2c(C(=O)Nc3ccc(F)cc3)c(C(=O)Nc3ccc(F)cc3)sc2n1,> 160 µM,> 160 µM,16.3 µM,47.9 µM,1.71 µM,16.3 µM,3.48 µM,13.8 µM,> 160 µM,> 160 µM,36.8 µM,> 160 µM,> 160 µM,> 160 µM,30.3 µM,148 µM,10.6 µM,> 160 µM,17.5 µM,40 µM
N#CC1=C(N)Oc2c(ccc3ccccc23)C1c1cc(=O)oc2ccc(Cl)cc12 (centres undefined),0.407 µM,58.1 µM,0.535 µM,20.2 µM,26 µM,81.6 µM,2.16 µM,> 100 µM,0.244 µM,0.947 µM,0.47 µM,41.1 µM,0.484 µM,14.4 µM,0.873 µM,> 100 µM,0.375 µM,> 100 µM,1.38 µM,> 100 µM
CN(C)CC1CC/C(=C\c2ccc3c(c2)OCO3)C1=O (centres undefined),,19.7 µM,,36.1 µM,,50.6 µM,,28.5 µM,,4.43 µM,,30.4 µM,,28 µM,,26.9 µM,,11.4 µM,,> 75.3 µM
CCCCCCCCCCCCC(O)c1ccco1 (centres undefined),19.4 µM,38.5 µM,16.2 µM,29.7 µM,20.8 µM,37.9 µM,21.1 µM,39 µM,19.4 µM,35.6 µM,17.7 µM,32.4 µM,14.8 µM,28.2 µM,21.1 µM,42.7 µM,29.1 µM,48 µM,25.5 µM,48.1 µM
Cn1cc(C2=C(c3c[nH]c4ccccc34)C(=O)NC2=O)c2ccccc21,0.264 µM,,1.36 µM,> 25 µM,1.99 µM,> 25 µM,0.071 µM,> 7.62 µM,0.937 µM,> 25 µM,1.59 µM,> 25 µM,0.859 µM,3.1 µM,0.975 µM,> 25 µM,0.704 µM,> 25 µM,1.66 µM,> 25 µM
COc1ccc(/C=C/c2c(C(=O)/C=C/c3ccc(C(F)(F)F)cc3)c(C)nc3ccccc23)cc1,0.425 µM,> 100 µM,1.53 µM,3.28 µM,1.85 µM,4.01 µM,1.43 µM,2.85 µM,1.89 µM,3.72 µM,1.6 µM,3.42 µM,1.68 µM,3.09 µM,0.466 µM,2.39 µM,2.05 µM,> 100 µM,2.71 µM,8.57 µM
CS(=O)(=O)OCCCNCCCOS(C)(=O)=O,,3130 µM,,5460 µM,,5860 µM,,6940 µM,,8690 µM,,4260 µM,,3220 µM,,7300 µM,,9080 µM,,4550 µM
CS(=O)(=O)Nc1cccc(-c2ccc3ncnc(Nc4ccc(F)c(Cl)c4)c3c2)c1,3.05 µM,> 100 µM,1.55 µM,3.34 µM,1.8 µM,5.33 µM,4.32 µM,> 30.2 µM,1.91 µM,4.75 µM,1.84 µM,3.83 µM,1.64 µM,3.19 µM,1.09 µM,5.41 µM,1.98 µM,5.62 µM,1.58 µM,7.49 µM
Cc1ccc([N+](=O)[O-])c2c(NCCNC(=O)c3cc(C(=O)NCCNc4ccnc5c(C)ccc([N+](=O)[O-])c45)n(C)n3)ccnc12,,> 46.4 µM,,> 100 µM,,> 100 µM,,> 87.3 µM,,> 56.1 µM,,> 83 µM,,58 µM,,> 100 µM,,> 76.4 µM,,> 68.8 µM
O=C(Nc1ccccc1I(=O)=O)C1CCCCC1,> 100 µM,> 100 µM,> 100 µM,> 100 µM,> 100 µM,> 100 µM,> 100 µM,> 100 µM,> 100 µM,> 100 µM,> 100 µM,> 100 µM,> 100 µM,> 100 µM,> 100 µM,> 100 µM,56.8 µM,> 100 µM,> 100 µM,> 100 µM
C#Cc1cccc(Nc2nc(Cl)nc3cc(NC(=O)CCl)ccc23)c1,0.588 µM,2.47 µM,0.526 µM,1.14 µM,1.61 µM,5.27 µM,1.13 µM,5.13 µM,1.04 µM,3.83 µM,0.82 µM,3.26 µM,1.04 µM,3.36 µM,0.5 µM,1.12 µM,0.792 µM,3.03 µM,3.66 µM,8.51 µM
CC/C(Cc1ccccc1)=C(\c1ccc(OCCN2CCCC2)cc1)c1ccc(OC(=O)NCc2ccccc2)cc1,2.83 µM,7.56 µM,1.77 µM,3.17 µM,3.52 µM,14.2 µM,2.13 µM,6.53 µM,1.67 µM,3.12 µM,1.81 µM,3.24 µM,1.71 µM,3.11 µM,1.93 µM,3.87 µM,1.7 µM,4.4 µM,1.88 µM,3.47 µM
